The text below walks through data of article PMC12682859, “Interconnected roles of mitochondrial carrier proteins ANT, PiT, and UCPs in proton transport” (Frontiers in Molecular Biosciences, 2025).

The target in assay [1] is T1, UCP4:ANT1 heterotetramer (1:1) (Homo sapiens; Bos taurus, UniProt O95847+P02722).
T1 construct: gene SLC25A27; co-reconstituted 1:1 in liposomes from purified N-terminally His6-tagged monomers (bovine ANT1, human UCP4); heterotetramer
T1 sequence (O95847 1-323): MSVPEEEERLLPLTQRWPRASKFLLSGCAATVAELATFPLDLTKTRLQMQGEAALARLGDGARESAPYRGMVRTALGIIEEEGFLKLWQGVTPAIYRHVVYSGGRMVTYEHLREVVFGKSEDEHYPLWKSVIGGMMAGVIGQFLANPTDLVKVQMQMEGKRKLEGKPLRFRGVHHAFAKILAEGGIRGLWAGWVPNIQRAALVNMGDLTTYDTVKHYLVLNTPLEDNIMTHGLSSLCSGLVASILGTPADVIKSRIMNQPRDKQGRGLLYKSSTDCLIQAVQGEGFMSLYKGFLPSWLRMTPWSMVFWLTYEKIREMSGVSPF
T1 sequence (P02722 2-298): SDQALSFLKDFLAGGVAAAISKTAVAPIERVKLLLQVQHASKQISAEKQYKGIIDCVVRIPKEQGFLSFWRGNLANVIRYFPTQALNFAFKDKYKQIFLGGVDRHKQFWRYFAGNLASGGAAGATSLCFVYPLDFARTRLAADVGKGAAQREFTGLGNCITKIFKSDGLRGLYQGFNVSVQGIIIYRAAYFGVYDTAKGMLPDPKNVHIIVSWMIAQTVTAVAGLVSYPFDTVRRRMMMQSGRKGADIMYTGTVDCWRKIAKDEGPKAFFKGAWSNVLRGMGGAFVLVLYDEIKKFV
Put plainly: SPQ fluorescence proton efflux in proteoliposomes. In kind it is biochemical. Conditions: read-out: % inhibition at 5 uM.

The target in assay [2] is T2, UCP2 (Homo sapiens, UniProt P55851).
T2 construct: full length, N-terminal His6 tag kept, pelB leader removed; E. coli membranes; homotetramer in liposomes
T2 sequence (P55851 1-309): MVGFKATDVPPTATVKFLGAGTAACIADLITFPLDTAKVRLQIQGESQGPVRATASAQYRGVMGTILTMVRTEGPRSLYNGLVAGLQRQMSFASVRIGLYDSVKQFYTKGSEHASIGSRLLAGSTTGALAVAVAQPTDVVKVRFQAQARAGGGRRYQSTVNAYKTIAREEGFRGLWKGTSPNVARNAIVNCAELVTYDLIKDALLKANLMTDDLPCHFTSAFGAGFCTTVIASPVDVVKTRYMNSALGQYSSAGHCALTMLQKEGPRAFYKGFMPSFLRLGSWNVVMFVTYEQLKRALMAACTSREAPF
Put plainly: biochemical. On the set-up: SPQ fluorescence quenching assay of proton transport by carriers reconstituted in EYPC liposomes, palmitic acid activated. Conditions: EYPC liposomes + 2.5% cardiolipin, 100 uM palmitic acid. The procedure:
(§1) FIGURE 8 Proton transport and CATR-inhibited proton transport rates of reconstituted UCP2, UCP4, ANT1, co-reconstituted UCP4:ANT1 and UCP2:ANT1 (1:1 stoichiometric ratio) in liposomes made from EYPC containing 2.5% added CL, in the presence of 100 μM palmitic acid (PA). Each experiment included final concentrations of 1 μM total combined protein and 1 mM lipid. Dark bars represent the total proton transport rate in the absence of CATR, shaded Gray bars represent the proton transport rate in the presence of 5 μM CATR (for corresponding numerical values, see Supplementary Table S6). Each bar represents the average transport rate of at least 10 repeats (from at least two independent experiments), and the error bars show the standard deviations. Asterisks (*) indicate a statistically significant difference (p < 0.05) between the total proton efflux and CATR-inhibited efflux within each combination. Note that the proton transport data for UCP4, UCP2, and ANT1 are reproduced from Figure 5. For the 1:1 combination of UCP4 and ANT1 heterotetramers, to further confirm the cooperativity between ANT1 and UCP4 dimers, we examined proton transport in the presence of the known ANT inhibitor CATR. CATR is an irreversible substrate inhibitor of ANT that blocks its ADP-ATP exchange function ([Klingenberg et al., 1975]). We surmised that irreversible inhibition of the nucleotide exchange activity of ANT and prevention of its alternating transport function could also affect the cooperativity of proton transport activity of ANT1-UCP4 heterotetramers. To verify this hypothesis, we first examined the inhibitory effect of CATR on the proton transport activity of individually reconstituted UCP4 and ANT1. […] A similar inhibitory effect of CATR on the proton transport function of ANT has been reported in a previous study ([Kreiter et al., 2021]). […] Supplementary Material . Figure S1. Schematic of proton transport assay and data analysis. […]

In assay [3] the target is T3, UCP2:ANT1 heterotetramer (1:1) (Homo sapiens; Bos taurus, UniProt P02722+P55851).
T3 construct: co-reconstituted 1:1 in liposomes from purified N-terminally His6-tagged monomers (bovine ANT1, human UCP2); heterotetramer
T3 sequence (P55851 1-309): T2 sequence (P55851 1-309)
T3 sequence (P02722 2-298): T1 sequence (P02722 2-298)
Description: biochemical. As to conditions: EYPC liposomes + 2.5% cardiolipin, 100 uM palmitic acid. On the set-up: SPQ fluorescence quenching assay of proton transport by carriers reconstituted in EYPC liposomes, palmitic acid activated. The procedure: as §1

The target in assay [4] is T4, UCP4 (Homo sapiens, UniProt O95847).
T4 construct: gene SLC25A27; full length, N-terminal His6 tag kept, pelB leader removed; E. coli membranes; homotetramer in liposomes
T4 sequence (O95847 1-323): T1 sequence (O95847 1-323)
Description: biochemical. Conditions: EYPC liposomes + 2.5% cardiolipin, 100 uM palmitic acid. Set-up: SPQ fluorescence quenching assay of proton transport by carriers reconstituted in EYPC liposomes, palmitic acid activated. The procedure: as §1

In assay [5] the target is T5, ANT1 (Bos taurus, UniProt P02722).
T5 sequence (P02722 2-298): T1 sequence (P02722 2-298)
Put plainly: biochemical. Set-up: gene SLC25A4; full length, N-terminal His6 tag kept, pelB leader removed; E. coli membranes; mainly monomer in liposomes; SPQ fluorescence quenching assay of proton transport by carriers reconstituted in EYPC liposomes, palmitic acid activated. As to conditions: EYPC liposomes + 2.5% cardiolipin, 100 uM palmitic acid. The procedure: FIGURE 8 Proton transport and CATR-inhibited proton transport rates of reconstituted UCP2, UCP4, ANT1, co-reconstituted UCP4:ANT1 and UCP2:ANT1 (1:1 stoichiometric ratio) in liposomes made from EYPC containing 2.5% added CL, in the presence of 100 μM palmitic acid (PA). Each experiment included final concentrations of 1 μM total combined protein and 1 mM lipid. Dark bars represent the total proton transport rate in the absence of CATR, shaded Gray bars represent the proton transport rate in the presence of 5 μM CATR (for corresponding numerical values, see Supplementary Table S6). Each bar represents the average transport rate of at least 10 repeats (from at least two independent experiments), and the error bars show the standard deviations. Asterisks (*) indicate a statistically significant difference (p < 0.05) between the total proton efflux and CATR-inhibited efflux within each combination. Note that the proton transport data for UCP4, UCP2, and ANT1 are reproduced from Figure 5. For the 1:1 combination of UCP4 and ANT1 heterotetramers, to further confirm the cooperativity between ANT1 and UCP4 dimers, we examined proton transport in the presence of the known ANT inhibitor CATR. CATR is an irreversible substrate inhibitor of ANT that blocks its ADP-ATP exchange function ([Klingenberg et al., 1975]). […]

SMILES strings stand for the structures.

By inhibition is commonly meant the relative decrease from the control value, in per cent.

Take `C=C1[C@@H]2CC[C@H]3[C@]4(C)C[C@H](O[C@@H]5O[C@H](CO)[C@@H](OS(=O)(=O)O)[C@H](OS(=O)(=O)O)[C@H]5OC(=O)CC(C)C)CC(C(=O)O)(C(=O)O)[C@H]4CC[C@]3(C2)[C@H]1O` [CATR, carboxyatractyloside]: the inhibition at 5 µM in assay [1] is around 71%; in assay [2] it was 1.7%; in assay [3] it was 73.6%; in assay [4], 2.7%; in assay [5] it was 70.1%.
